# Measured values from article PMC9551036, “A selective and orally bioavailable VHL-recruiting PROTAC achieves SMARCA2 degradation in vivo” (Nature Communications, 2022).
# Where “and” joins values, the source holds several entries; their conditions need not be identical. Equal entries are not always repeated. Where two headings read alike, the source gives them in different places.
# Assays:
# [1] = system: panel of cell lines (A549, HCC-364, HCC-515, HCC4006, KYSE-30, LU99, LXFA_629L, LXFA_923L, LXFL_529L, LXFL_1121L, MP38, NCI-H23, NCI-H1355, OV-90, SK-MEL-5 …); assay: Cell viability assay (CellTiter Glo) in a panel of cell lines; type: cell-based, human;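 on % Viability: percent of DMSO-treated control cells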
# Protocol: 500–2000 cells were seeded in white, clear bottom 96-well plates (Corning or Perkin Elmer) in 180–200 µl medium per well. The next day, compounds were added using a digital dispenser and a T0 sample was measured for reference. Cells were incubated for 144–192 h, and viability (luminescence) was measured using CellTiter Glo or CellTiter Glo 2.0 (Promega) according to manufacturer’s instructions after equilibrating cells and reagents at room temperature and 10–20 min incubation time while shaking.
# KRT80 mRNA = assay: qPCR for KRT80 mRNA levels in A549 and NCI-H1568 cells; type: cell-based, human; conditions: for EC50: Homo sapiens
# Protocol: 350,000–500,000 cells were seeded in 6-well plates and compounds were added the next day at the indicated concentrations after pre-dilution in medium. Cells were incubated for 18 h, harvested, and RNA was extracted using the RNeasy Mini Kit (Qiagen) according to manufacturer’s instructions. A DNAse digestion step was included. 1 µg RNA was used for cDNA synthesis with the SuperScript VILO cDNA synthesis kit (Invitrogen) according to manufacturer’s instructions. TAQMAN qPCR was then performed using the QuantiTect Multiplex PCR kit (Qiagen) with probes for KRT80 (Hs01372365_m1, Applied Biosystems) and human GAPDH as endogenous control (4326317E, VIC/MGB probe, Primer Limited) for normalisation in a duplex assay over 45 cycles with 100 ng cDNA input. […] Curves were fitted using a 4-parametric logistic model.
# A549 tumour xenograft = assay: A549 xenograft tumour growth; type: in vivo, mouse; conditions: for Tumor volume: Fig4g, 80 mg/kg, qd, per animal
# Protocol: To establish subcutaneous tumours, mice were injected with 5 × 10^6 NCI-H1568 in PBS with 5% FCS or with 1 × 10^7 A549 cells in PBS with 5% FCS. Tumour diameters were measured with a caliper three times a week. The volume of each tumour (in mm^3) was calculated according to the formula [tumour volume = length × diameter^2 × π/6]. To monitor side effects of treatment, mice were inspected daily for abnormalities and body weight was determined daily after the start of treatment. Animals were sacrificed when the tumours reached a size of 1500 mm^3. Mice were randomised into treatment groups when the average tumour size reached ~210–220 mm^3. Group sizes were calculated individually for each tumour model based on tumour growth during model establishment experiments. A power analysis was performed using a sample size calculator (https://www.stat.ubc.ca/~rollin/stats/ssize/n2.html). For both models used in the study, 10 mice per group were used for each experiment. All administrations were dosed with 10 ml/kg (s.c. and oral). Control mice were dosed subcutaneously with 10% HP-β-CD in 50% Ringer solution and orally with 15% HP-β-CD, that means the control mouse treatment was corresponding to the solvent of the compounds. Compound 6 was dosed subcutaneously either in a d1-4 q3d, d6-8 q2d, d11-13 q2d treatment (Treatment 1) or a q3 or 4d treatment (Treatment 2).
# For the evaluation of the statistical significance of tumour growth inhibition, a one-tailed nonparametric Mann-Whitney-Wilcoxon U-test was performed, based on the hypothesis that an effect would only be measurable in one direction (i.e. expectation of tumour inhibition but not tumour stimulation). Analysis was performed on the day indicated for each experiment. The p values obtained from the U-test were adjusted using the Bonferroni-Holm correction. By convention, p values ≤0.05 indicate significance of differences.
structure (smiles),measurement,setting,value
Cc1ncsc1-c1ccc(C(CCC(C)CCN2CCC(c3ccc4c(c3)n(C3CCCC3)c3nc(=O)c5c(Br)cccc5n43)CC2)NC(=O)C2CC(O)CN2C(=O)C(NC(=O)C2(F)CC2)C(C)(C)C)cc1 (stereo not drawn) [ACBI2],% Viability,"[1]; NCI-H1355, log10 conc -8.31158 mol/l",91.2593% and 85.8715%
same,HillSlope (viability),[1]; OV-90,-0.9956
same,% Viability,"[1]; OV-90, log10 conc -7.10735 mol/l",57.2489% and 75.2258%
same,% Viability,"[1]; OV-90, log10 conc -8.31158 mol/l",97.3183% and 109.838%
same,HillSlope (viability),[1]; SK-MEL-5,-1.006
same,% Viability,"[1]; SK-MEL-5, log10 conc -7.10735 mol/l",3.91% and 3.091%
same,% Viability,"[1]; SK-MEL-5, log10 conc -8.31158 mol/l",29.6092% and 31.0459%
same,HillSlope (viability),[1]; TOV-112D,-1.255
same,% Viability,"[1]; TOV-112D, log10 conc -7.10735 mol/l",105.246% and 100.431%
same,% Viability,"[1]; TOV-112D, log10 conc -8.31158 mol/l",103.581% and 98.4682%
same,KRT80 mRNA levels,KRT80 mRNA; 18 h treatment,decreased mRNA levels of KRT80
same,"Bottom (% KRT80 mRNA, four-parameter fit)",KRT80 mRNA; A549,1.487%
same,HillSlope (KRT80 mRNA),KRT80 mRNA; A549,-1.195
same,"Top (% KRT80 mRNA, four-parameter fit)",KRT80 mRNA; A549,88.72%
same,% KRT80 mRNA,"KRT80 mRNA; A549, conc 1e-10 mol/l",68.3704%
same,% KRT80 mRNA,"KRT80 mRNA; A549, conc 3.2e-10 mol/l",113.907%
same,% KRT80 mRNA,"KRT80 mRNA; A549, conc 1e-9 mol/l",83.7736%
same,% KRT80 mRNA,"KRT80 mRNA; A549, conc 1.6e-9 mol/l",68.0813%
same,% KRT80 mRNA,"KRT80 mRNA; A549, conc 8e-9 mol/l",32.1733%
same,% KRT80 mRNA,"KRT80 mRNA; A549, conc 1e-8 mol/l",59.5378%
same,% KRT80 mRNA,"KRT80 mRNA; A549, conc 4e-8 mol/l",6.155%
same,% KRT80 mRNA,"KRT80 mRNA; A549, conc 1e-7 mol/l",5.176%
same,% KRT80 mRNA,"KRT80 mRNA; A549, conc 2e-7 mol/l",3.074%
same,% KRT80 mRNA,"KRT80 mRNA; A549, conc 1e-6 mol/l",3.879% and 3.0631%
same,EC50,"KRT80 mRNA; A549, read-out: EC50 (KRT80 mRNA)",8.27 nM
same,EC50,"KRT80 mRNA; A549, read-out: LogEC50 (KRT80 mRNA) (converted)",8.26 nM
same,EC50,"KRT80 mRNA; NCI-H1568, read-out: EC50 (KRT80 mRNA)",9.77 nM
same,EC50,"KRT80 mRNA; NCI-H1568, read-out: LogEC50 (KRT80 mRNA) (converted)",9.77 nM
same,"Bottom (% KRT80 mRNA, four-parameter fit)",KRT80 mRNA; NCI-H1568,16.16%
same,"Top (% KRT80 mRNA, four-parameter fit)",KRT80 mRNA; NCI-H1568,89.57%
same,% KRT80 mRNA,"KRT80 mRNA; NCI-H1568, conc 1e-10 mol/l",84.6925%
same,% KRT80 mRNA,"KRT80 mRNA; NCI-H1568, conc 1.6e-9 mol/l",88.1629%
same,% KRT80 mRNA,"KRT80 mRNA; NCI-H1568, conc 8e-9 mol/l",95.8588%
same,% KRT80 mRNA,"KRT80 mRNA; NCI-H1568, conc 1e-8 mol/l",27.1635%
same,% KRT80 mRNA,"KRT80 mRNA; NCI-H1568, conc 4e-8 mol/l",13.5152%
same,% KRT80 mRNA,"KRT80 mRNA; NCI-H1568, conc 1e-7 mol/l",10.7775%
same,% KRT80 mRNA,"KRT80 mRNA; NCI-H1568, conc 2e-7 mol/l",11.1934%
same,% KRT80 mRNA,"KRT80 mRNA; NCI-H1568, conc 1e-6 mol/l",17.4529% and 27.8788%
same,TGI,"A549 tumour xenograft; A549 xenograft, 80 mg/kg p.o. once daily, day 21",47%
same,Tumor volume,A549 tumour xenograft; day 1,123.81 mm3 and 132.68 mm3 and 160.75 mm3 and 185.14 mm3 and 199.53 mm3 and 221.26 mm3 and 231.03 mm3 and 289.04 mm3 and 318.82 mm3 and 328.35 mm3
same,Tumor volume,A549 tumour xenograft; day 4,227.06 mm3 and 262.12 mm3 and 188.92 mm3 and 409.05 mm3 and 274.16 mm3 and 314.25 mm3 and 306.21 mm3 and 369.92 mm3 and 481.58 mm3 and 366.82 mm3
same,Tumor volume,A549 tumour xenograft; day 7,231.98 mm3 and 243.18 mm3 and 196.23 mm3 and 274.16 mm3 and 253.11 mm3 and 344.34 mm3 and 317.61 mm3 and 448.55 mm3 and 592.88 mm3 and 312.54 mm3
same,Tumor volume,A549 tumour xenograft; day 9,261.94 mm3 and 301.83 mm3 and 219.73 mm3 and 302.82 mm3 and 326.12 mm3 and 416.63 mm3 and 335.28 mm3 and 487.15 mm3 and 592.89 mm3 and 371.89 mm3
same,Tumor volume,A549 tumour xenograft; day 11,258.58 mm3 and 202.63 mm3 and 223.15 mm3 and 242.18 mm3 and 278.14 mm3 and 355.98 mm3 and 334.2 mm3 and 464.77 mm3 and 688.26 mm3 and 480.94 mm3
same,Tumor volume,A549 tumour xenograft; day 16,301.85 mm3 and 268.43 mm3 and 297.84 mm3 and 244.81 mm3 and 221.75 mm3 and 393.39 mm3 and 329.71 mm3 and 573.4 mm3 and 713.65 mm3 and 552.3 mm3
same,Tumor volume,A549 tumour xenograft; day 18,316.56 mm3 and 265.75 mm3 and 265.54 mm3 and 297.93 mm3 and 440.11 mm3 and 297.45 mm3 and 522.76 mm3 and 814.33 mm3 and 590.82 mm3
same,Tumor volume,A549 tumour xenograft; day 21,331.26 mm3 and 257.14 mm3 and 246.03 mm3 and 472.38 mm3 and 341.87 mm3 and 428.61 mm3 and 821.5 mm3 and 487.26 mm3
same,Tumor volume,A549 tumour xenograft; day 23,322.32 mm3 and 225.79 mm3 and 259.68 mm3 and 527.19 mm3 and 270.43 mm3 and 777.27 mm3 and 455.64 mm3
